Experimental data taken from ChEMBL document CHEMBL1201862, “PubChem BioAssay data set” (2004).
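Tested at 5 concentrations; 48 h exposure; 96-well plates; endpoints linearly interpolated, else capped at highest concentration. At the GI50, growth is halved.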 Activity calls are given as the source filed them. Cut-off read from the data, not from the text of the source: active = GI50 up to about 1.1 µM and inactive = higher.

Key:
Assay in all cases: NCI anticancer screen, dose series, 48 h
BT-549 = test system: BT-549
SK-MEL-28 = test system: SK-MEL-28
SK-MEL-5 = test system: SK-MEL-5
HCT-116 = test system: HCT-116
786-0 = test system: 786-0
NCI-H23 = test system: NCI-H23
NCI/ADR-RES = test system: NCI/ADR-RES
COLO 205 = test system: COLO 205
EKVX = test system: EKVX
SF-295 = test system: SF-295
HCC 2998 = test system: HCC 2998
HOP-62 = test system: HOP-62
IGROV-1 = test system: IGROV-1
OVCAR-8 = test system: OVCAR-8
HCT-15 = test system: HCT-15
KM12 = test system: KM12
HOP-92 = test system: HOP-92
SNB-75 = test system: SNB-75
T47D = test system: T47D
SK-OV-3 = test system: SK-OV-3

Row | SMILES | GI50 (BT-549) | GI50 (SK-MEL-28) | GI50 (SK-MEL-5) | GI50 (HCT-116) | GI50 (786-0) | GI50 (NCI-H23) | GI50 (NCI/ADR-RES) | GI50 (COLO 205) | GI50 (EKVX) | GI50 (SF-295) | GI50 (HCC 2998) | GI50 (HOP-62) | GI50 (IGROV-1) | GI50 (OVCAR-8) | GI50 (HCT-15) | GI50 (KM12) | GI50 (HOP-92) | GI50 (SNB-75) | GI50 (T47D) | GI50 (SK-OV-3)
1 | CCOC1=C(c2ccccc2)N2CCCCC2O1 (stereo not drawn) | 5.33 µM (inactive) | 12.3 µM (inactive) | 1.7 µM (inactive) | 2.88 µM (inactive) | 4.55 µM (inactive) | 3.29 µM (inactive) | 23.7 µM (inactive) | 2.22 µM (inactive) | 5.19 µM (inactive) | 3.26 µM (inactive) | 3.12 µM (inactive) | 4.6 µM (inactive) | 5.78 µM (inactive) | 3.89 µM (inactive) | 29 µM | 3.27 µM (inactive) | 2.21 µM (inactive) | 2.83 µM (inactive) | 2.04 µM (inactive) | 
2 | COc1ccc2c(c1O)[C@@]13CCCC=C1[C@@H](C2)N(C)CC3 | 34 µM (inactive) | > 100 µM (inactive) | 69.2 µM (inactive) | 36.6 µM (inactive) | > 100 µM (inactive) | 89.1 µM (inactive) | 33 µM (inactive) | 97.1 µM (inactive) | > 100 µM (inactive) | > 100 µM (inactive) | > 100 µM (inactive) | > 100 µM (inactive) | > 100 µM (inactive) | > 100 µM (inactive) | > 100 µM | > 100 µM (inactive) | 39.7 µM (inactive) | 36.7 µM (inactive) | 90.2 µM (inactive) | > 100 µM (inactive)
3 | CC(C)(C)c1ccc2c(c1)C(=O)c1ccccc1C2=O | 24.8 µM (inactive) | 98.2 µM (inactive) | 18.1 µM (inactive) | 76 µM (inactive) | > 100 µM (inactive) | 61.9 µM (inactive) | 32.7 µM (inactive) | 25 µM (inactive) | 19 µM (inactive) | 56.4 µM (inactive) |  | > 100 µM (inactive) | 33 µM (inactive) | 44.5 µM (inactive) | 39.7 µM | 36 µM (inactive) | 15.5 µM (inactive) | 16.2 µM (inactive) | > 100 µM (inactive) | > 100 µM (inactive)
4 | COc1ccc2c(c1OC(C)=O)C1=CC(=O)CCC13CCNC3C2 (stereo not drawn) | > 100 µM (inactive) | > 100 µM (inactive) | > 100 µM (inactive) | > 100 µM (inactive) | > 100 µM (inactive) | > 100 µM (inactive) | > 100 µM (inactive) | > 100 µM (inactive) | > 100 µM (inactive) | > 100 µM (inactive) | > 100 µM (inactive) | > 100 µM (inactive) | > 100 µM (inactive) | > 100 µM (inactive) | > 100 µM | > 100 µM (inactive) | > 100 µM (inactive) | > 100 µM (inactive) | > 100 µM (inactive) | > 100 µM (inactive)
5 | COc1cccc(CCN2CCN(CCCc3ccccc3)CC2)c1 | 40.1 µM (inactive) | > 100 µM (inactive) | 19.4 µM (inactive) | 53.7 µM (inactive) | 63.8 µM (inactive) | 53 µM (inactive) | > 100 µM (inactive) | 21.1 µM (inactive) | > 100 µM (inactive) | 43 µM (inactive) | 58.3 µM (inactive) | 79.1 µM (inactive) | > 100 µM (inactive) | > 100 µM (inactive) | 31.7 µM | 51.8 µM (inactive) | 8.41 µM (inactive) | 63.1 µM (inactive) | 43.6 µM (inactive) | 88.1 µM (inactive)
6 | C[N+](C)(C)C(Cc1c[nH]c(=S)[nH]1)C(=O)O (stereo not drawn) | > 100 µM (inactive) | > 100 µM (inactive) | > 100 µM (inactive) | > 100 µM (inactive) | > 100 µM (inactive) | > 100 µM (inactive) | > 100 µM (inactive) | > 100 µM (inactive) | > 100 µM (inactive) | > 100 µM (inactive) | > 100 µM (inactive) | > 100 µM (inactive) | > 100 µM (inactive) | > 100 µM (inactive) | > 100 µM | > 100 µM (inactive) | > 100 µM (inactive) | > 100 µM (inactive) | > 100 µM (inactive) | > 100 µM (inactive)
7 | COCCOC(C)C(=O)C(O)S(=O)(=O)O (stereo not drawn) | > 100 µM (inactive) | > 100 µM (inactive) | > 100 µM (inactive) | > 100 µM (inactive) | > 100 µM (inactive) | > 100 µM (inactive) | > 100 µM (inactive) | > 100 µM (inactive) | > 100 µM (inactive) | > 100 µM (inactive) | > 100 µM (inactive) | > 100 µM (inactive) | > 100 µM (inactive) | > 100 µM (inactive) | > 100 µM | > 100 µM (inactive) | > 100 µM (inactive) | > 100 µM (inactive) | > 100 µM (inactive) | > 100 µM (inactive)
8 | COc1cc(Nc2nnc3n2S(=O)(=O)c2cc(C)c(Cl)cc2S3)cc(OC)c1 | 5.77 µM (inactive) | 26 µM (inactive) | 9.29 µM (inactive) | 14 µM (inactive) | 4.22 µM (inactive) | 6.25 µM (inactive) | 15.6 µM (inactive) | 13.2 µM (inactive) | 15.4 µM (inactive) | 21.5 µM (inactive) | 6.18 µM (inactive) | 11.9 µM (inactive) | 1.87 µM (inactive) | 17.5 µM (inactive) | 17.7 µM | 23.4 µM (inactive) | 5.26 µM (inactive) |  | 8.22 µM (inactive) | 14.2 µM (inactive)
9 | O=C1CC(CC(O)C(O)C(O)CO)CC(=O)N1 (stereo not drawn) | > 100 µM (inactive) | > 100 µM (inactive) | > 100 µM (inactive) | > 100 µM (inactive) | > 100 µM (inactive) | > 100 µM (inactive) | > 100 µM (inactive) | > 100 µM (inactive) | > 100 µM (inactive) | > 100 µM (inactive) | > 100 µM (inactive) | > 100 µM (inactive) | > 100 µM (inactive) | > 100 µM (inactive) | > 100 µM | > 100 µM (inactive) | > 100 µM (inactive) | > 100 µM (inactive) | > 100 µM (inactive) | 
10 | O=c1[nH]c(=O)n(C/C=C/CO)nc1Br | > 100 µM (inactive) | > 100 µM (inactive) | > 100 µM (inactive) | > 100 µM (inactive) | > 100 µM (inactive) | > 100 µM (inactive) | > 100 µM (inactive) | > 100 µM (inactive) | > 100 µM (inactive) | > 100 µM (inactive) | > 100 µM (inactive) | > 100 µM (inactive) | > 100 µM (inactive) | > 100 µM (inactive) | > 100 µM | > 100 µM (inactive) | > 100 µM (inactive) | > 100 µM (inactive) | > 100 µM (inactive) | 
11 | COc1cc(C2SCCCCCCCCCCSC(c3ccc(O)c(OC)c3)SCCCCCCCCCCS2)ccc1O (stereo not drawn) | > 100 µM (inactive) | > 100 µM (inactive) | > 100 µM (inactive) | > 100 µM (inactive) | > 100 µM (inactive) | > 100 µM (inactive) | > 100 µM (inactive) | > 100 µM (inactive) | > 100 µM (inactive) | > 100 µM (inactive) |  | > 100 µM (inactive) | > 100 µM (inactive) | > 100 µM (inactive) | > 100 µM | > 100 µM (inactive) | > 100 µM (inactive) | 52.6 µM (inactive) | > 100 µM (inactive) | > 100 µM (inactive)
12 | C=CC(C)(C)c1cc([C@@H]2COc3cc(O)ccc3C2=O)c(O)c(OC)c1OC | 10.2 µM (inactive) | 19.5 µM (inactive) | 10.4 µM (inactive) | 11.8 µM (inactive) | 16 µM (inactive) | 10.4 µM (inactive) | 12.6 µM (inactive) | 22 µM (inactive) | 12.1 µM (inactive) | 12.2 µM (inactive) | 17.1 µM (inactive) |  |  | 17.3 µM (inactive) | 14 µM | 13.2 µM (inactive) | 6.1 µM (inactive) | 4.63 µM (inactive) | 3.24 µM (inactive) | 14.6 µM (inactive)
13 | CC(=O)Nc1ccc2c(c1)/C(=N/c1ccc(C(=O)O)cc1)c1ccccc1-2 | 47.1 µM (inactive) | > 100 µM (inactive) | 25.8 µM (inactive) | > 100 µM (inactive) | > 100 µM (inactive) | > 100 µM (inactive) | 95.1 µM (inactive) | 57.3 µM (inactive) | 45.9 µM (inactive) | 96.4 µM (inactive) | > 100 µM (inactive) | 86.1 µM (inactive) | 46.3 µM (inactive) | 76.7 µM (inactive) | 43.9 µM | 51.4 µM (inactive) | 37.9 µM (inactive) |  | 28 µM (inactive) | > 100 µM (inactive)
14 | O=C(NCCCCCCO)c1cccc2cc3ccccc3nc12 | 16.2 µM (inactive) | 20.6 µM (inactive) | 18.1 µM (inactive) | 17.2 µM (inactive) | 13.8 µM (inactive) |  | 36.5 µM (inactive) | 11.7 µM (inactive) | 16.7 µM (inactive) | 16.7 µM (inactive) |  | 17.9 µM (inactive) | 17.7 µM (inactive) | 32.3 µM (inactive) | 17.9 µM | 18.7 µM (inactive) | 25.8 µM (inactive) | 21.9 µM (inactive) | 10.8 µM (inactive) | 22.4 µM (inactive)
15 | O=c1[nH]c(=O)c2ncn(-c3ccc([N+](=O)[O-])cn3)c2[nH]1 | > 100 µM (inactive) | > 100 µM (inactive) | > 100 µM (inactive) | > 100 µM (inactive) | > 100 µM (inactive) | > 100 µM (inactive) | > 100 µM (inactive) | > 100 µM (inactive) | > 100 µM (inactive) | > 100 µM (inactive) | > 100 µM (inactive) | > 100 µM (inactive) |  | > 100 µM (inactive) | > 100 µM | > 100 µM (inactive) | > 100 µM (inactive) | > 100 µM (inactive) | > 100 µM (inactive) | > 100 µM (inactive)
